Laboratory results as given in US20230096750A1, “Cyanine dyes and their usage for in vivo staining of microorganisms and other living cells” (Philipps-Universität Marburg, priority 2021, published 2023).
Read-outs that look alike come from different tables or passages of the source. Blank lines part the entries; values can stand above or below the compound they belong to.

Tests used:
[1] = Molar extinction coefficients; format: physicochemical
dsDNA [2] = assay: Fluorescence titrations (affinity towards dsDNA); format: binding; conditions: for RFU for slits 5/5: value given in Slits column for slits 5/5 nm instead of 10/10; for RFU + DNA: with DNA; for RFU − DNA: without DNA; for Kd: affinity towards dsDNA
Description: The affinity of the TramTO derivatives towards dsDNA is usually higher than the affinity of the derivatives without the modified side chain according to this invention. […] KD values are determined as is well known to any person being of ordinary skill in the art.

[3] = tested on: live and dead bacteria (E. Coli); assay: Flow cytometry of live versus dead cells labelled with 6-TramTO-1; format: cell-based; conditions: 5 μM dye for 5 min
Description: The flow cytometric measurements are performed by use of the LSR Fortessa cell analyser (BD Biosciences, USA) or other commercially available apparatuses (e.g. FACSAria III (BD Biosciences, USA) and Guava easyCyte (Merck Millipore, USA)). […] A minimum of 10000 events per sample is analysed. The measurements are each performed in at least two independent experiments. Bacteria are labelled for 15 min with 5 μM of the corresponding dyes. […] For 6-TramTO-1 (1) one can see clear labelling when 5 μM of the dye are added for only 5 min before the measurements, dead cells (treated with 70% isopropanol for 1 h, then washed with saline 3×) being labelled about 10× stronger: MFI 135 vs 1337. FIGS. 5A-5C show additional data. […] FIG. 5B: The graphs of FIG. 5B show flow cytometric data of mixtures of dead and live E. Coli treated with left graph: PI (20 μM) and right graph: 6-TramTO-1 (1, 5 μM) for 5 min showing that the TramTO and PI give the same results. • The parameter settings regarding excitation/emission (as far as they are applied) are equivalent to those described within the legend of FIG. 5A.

dsDNA [4] = conditions: affinity towards dsDNA; read-out: KD (literature value); cited from earlier work
HeLa cells = assay: Viability of HeLa cells, resazurin fluorescence-based cell viability assay; conditions: dye concentration of 10 μM
[5] = solvent DMSO; cited from earlier work

Compound: CN(C)c1ccc(/C=C/c2sc3ccccc3[n+]2CCCCCCn2cc(CN)nn2)cc1 [6-TramTAS (2), (E)-3-(6-(4-(aminomethyl)-1H-1,2,3-triazol-1-yl)hexyl)-2-(4-(dimethylamino)styryl)benzo[d]thiazol-3-ium]
Molar extinction coefficient ([1]; solvent MeCN): 70463 M⁻¹ cm⁻¹ | RFU for slits 5/5 (dsDNA [2]): ~8 RFU) | RFU + DNA (dsDNA [2]; slits 10/10 nm): 90 RFU | RFU − DNA (dsDNA [2]; slits 10/10 nm): 2.9 RFU

Compound: CC[n+]1ccc(/C=C2\Sc3ccccc3N2CCCCCCn2cc(CN)nn2)c2ccccc21 [6-TramTO-1 (1), (Z)-4-((3-(6-(4-(ammoniomethyl)-1H-1,2,3-triazol-1-yl)hexyl)benzo[d]thiazol-2(3H)-ylidene)methyl)-1-ethylquinolin-1-ium]
Molar extinction coefficient ([1]; solvent H2O): 61813 M⁻¹ cm⁻¹ | Kd (dsDNA [2]): 8.63 ± 4.34 µM | affinity towards dsDNA, superior to 6-TramTAS (dsDNA [2]; ratio versus 6-TramTAS): ~3 × | affinity towards dsDNA, superior to 6-TramTO-3 (dsDNA [2]; ratio versus 6-TramTO-3): ~2 × | RFU + DNA (dsDNA [2]; slits 5/5 nm): 460 RFU | RFU − DNA (dsDNA [2]; slits 5/5 nm): 1.2 RFU | labelling of dead cells stronger than live cells [3]: about 10 × | MFI ([3]; dead cells (70% isopropanol for 1 h)): 1337 | MFI ([3]; live cells): 135

Compound: CC[n+]1ccc(/C=C/C=C2\Sc3ccccc3N2CCCCCCn2cc(CN)nn2)c2ccccc21.[I-] [6-TramTO-3 (3)]
Molar extinction coefficient ([1]; solvent H2O): 59403 M⁻¹ cm⁻¹ | Kd (dsDNA [2]): 23 ± 1.81 µM | RFU + DNA (dsDNA [2]; slits 5/5 nm): 280 RFU | RFU − DNA (dsDNA [2]; slits 5/5 nm): 11.8 RFU | Kd (dsDNA [4]): 19.5 ± 2.6 µM | viability of HeLa cells compared to reference (HeLa cells): about 97%

Further lines, with some results ahead:

Kd (dsDNA [2]): 20.6 ± 6.67 µM
Compound: CC[n+]1ccc(/C=C2\Sc3ccccc3N2C)c2ccccc21 [CH3TO-1 (4), (Z)-1-ethyl-4-((3-methylbenzo[d]thiazol-2(3H)-ylidene)methyl)quinolin-1-ium, reference compound]
RFU for slits 5/5 (dsDNA [2]): ~10 RFU) | RFU + DNA (dsDNA [2]; slits 10/10 nm): 125 RFU | RFU − DNA (dsDNA [2]; slits 10/10 nm): 0.2 RFU | Molar extinction coefficient (lit.) [5]: lit. 63000 M^−1cm^−1

Molar extinction coefficient ([1]; solvent DMSO): 37153 M⁻¹ cm⁻¹ | Kd (dsDNA [2]): 45 ± 1.05 µM
Compound: CC[n+]1ccc(/C=C2\Sc3ccccc3N2C)c2ccccc21 [CH3TO-3 (6), (Z)-1-ethyl-4-((3-methylbenzo[d]thiazol-2(3H)-ylidene)methyl)quinolin-1-ium, reference compound]
RFU + DNA (dsDNA [2]; slits 5/5 nm): 210 RFU | RFU − DNA (dsDNA [2]; slits 5/5 nm): 6.8 RFU
